Measurements as given in patent US9498548B2, “Method of using oxidative reductive potential water solution in dental applications” (priority 2005, dated 2016).
Read-outs that look alike come from different tables or passages of the source.

How the values were obtained:
[1] = Root canal treatment study (irrigation and oral rinses); assay type: in vivo, patients; details: ORP water solution 109 pts; 2.5% SH 129 pts
Excerpt: Acute root canal was defined as an X-ray image showing a periapical lesion in addition to negative vitality and positive percussion clinical tests. Retrospective analysis of paired-cases presenting similar root canal infections between 2002 and 2003 at the same Institution was undertaken for the control group (the “SH” group) (see FIGS. 7A-B).
During the process the ducts were isolated to avoid contamination. The cavity was opened and the root drilled. ORP water solution flush started with the drilling process instead of using water or saline solution. Instrumentation was conducted according to the crown down technique using rotatory NiTi instruments. Instrumentation was done according to the extension of the duct as measured by the X ray. Duct irrigation was conducted with the ORP water solution after using each instrument. […] The duct was dried out with dental paper and occlusion done by lateral condensation with calcium hydroxide and epoxy resin. […] After 30 days, oral rinse once daily indefinitely was recommended.
A standard art-known treatment procedure with sodium hypochlorite (SH) was conducted for root canal treatment in control patients. Particular care was paid to avoid infiltration of the solution to the periapical region during the manipulation. All patients in the control group received ampicilin (500 mg tid) or cephalexin (500 mg bid) for 7 days as well as anti-inflammatory drugs (naproxen 500 mg bid) as necessary.
The demographic characteristics were similar for both groups (FIGS. 7 A & B).

[2] = tested on: murine polychromatic erythrocytes; details: for PCE/NCE ratio: bone marrow, cyclophosphamide 8 mg/mL, 12.5 ml/kg i.p. day 2
Method: The mammalian in vivo micronucleus test is used for the identification of substances which cause damage to chromosomes or the mitotic apparatus of murine polychromatic erythrocytes. This damage results in the formation of “micronuclei,” intracellular structures containing lagging chromosome fragments or isolated whole chromosomes. […] The positive control mice received a single intraperitoneal injection of cyclophosphamide (8 mg/mL, 12.5 ml/kg) on day 2. All mice were observed immediately after injection for any adverse reactions. […] On day 3, all mice were weighed and terminated.
The femurs were excised from the terminated mice, the bone marrow was extracted, and duplicate smear preparations were performed for each mouse. The bone marrow slides for each animal were read at 40× magnification. The ratio of polychromatic erythrocytes (PCE) to normochromatic erythrocytes (NCE), an index of bone marrow toxicity, was determined for each mouse by counting a total of at least 200 erythrocytes. Then a minimum of 2000 scoreable PCE per mouse were evaluated for the incidence of micronucleated polychromatic erythrocytes. Statistical analysis of the data were done using the Mann and Whitney test (at 5% risk threshold) from a statistical software package (Statview 5.0, SAS Institute Inc., USA).

[3] = tested on: human diploid fibroblasts (HDFs); test: Cell viability, apoptosis and necrosis by flow cytometry; assay type: cell-based; details: 880 mM
Method: HP is known to be toxic to eukaryotic cells, increasing apoptosis and necrosis and reducing cellular viability. […] HDF cultures were obtained from three different foreskins, which were pooled and cryopreserved together for the purpose of this study. Only diploid cells were used for all experiments. […] Simultaneous analyses of these parameters were performed in the same cell populations by flow cytometry using: […] FIG. 4B) Annexin V-FITC and FIG. 4C) Propidium iodide. FIGS. 8A-8C disclose percentage values expressed as mean±SD (n=3).

HDFs = details: human, 1 month, 5 µM

With `[Na+].[O-]Cl` [2.5% SH, sodium hypochlorite] the dental losses [1] was “Dental losses only occurred in the SH control group”, the “patients with an acute local reaction after root canal treatment” value [1] was 16 patients and the “total number of affected teeth” value [1] was 23.

With `O=P1(N(CCCl)CCCl)NCCCO1` (stereo not drawn) [cyclophosphamide] the PCE/NCE ratio ([2]; females) was 0.73, the PCE/NCE ratio ([2]; males) was 0.77 and the “number of polychromatic erythrocytes bearing micronuclei” value ([2]; males, minimum of 2000 PCE per mouse evaluated) was 11.0.

In the case of `OO` [HP, hydrogen peroxide], the Cell viability ([3]; 5 min) is reported as 55%, the Cell viability ([3]; 30 min) is reported as 5% and the “cells with increased SA-β-Gal expression” value (HDFs) is reported as 86%.
